Data published in ChEMBL document CHEMBL1140595, “Hybrid molecules between distamycin A and active moieties of antitumor agents” (Bioorg Med Chem, 2007).

Key:
[1] = system: Daudi; assay: Antiproliferative activity against human Daudi cells; format: functional, cell-based
[2] = system: FM3A; assay: Antiproliferative activity against mouse FM3A cells; format: functional, cell-based
[3] = system: MOLT-4; assay: Antiproliferative activity against human Molt/4 cells; format: functional, cell-based
[4] = system: L1210; assay: Antiproliferative activity against mouse L1210 cells; format: functional, cell-based
[5] = system: CCRF-CEM; assay: Antiproliferative activity against human CEM cells; format: functional, cell-based
[6] = system: K562; assay: Antiproliferative activity against human K562 cells; format: functional, cell-based
[7] = system: Jurkat; assay: Antiproliferative activity against human Jurkat cells; format: functional, cell-based
[8] = Inhibition of telomerase activity in human melanoma cell extracts
[9] = system: CCRF-SB; assay: Antiproliferative activity against human CCRF-SB cells; format: functional, cell-based
[10] = system: WIL2-NS; assay: Antiproliferative activity against human Wil2-NS cells; format: functional, cell-based
[11] = system: CCRF-CEM; assay: Antiproliferative activity against human CCRF-CEM cells; format: functional, cell-based
[12] = system: Raji; assay: Antiproliferative activity against human Raji cells; format: functional, cell-based

| SMILES | IC50 [3] | IC50 [4] | IC50 [5] | IC50 [6] | IC50 [2] | other results |
| --- | --- | --- | --- | --- | --- | --- |
| CC(C)(C)OC(=O)N1CC2CC23C1=CC(=O)c1c3cnn1Cc1ccccc1 (centres undefined) | 8.55 µM | 2.71 µM | 6.72 µM | – | 18.3 µM | IC50 [1]: 7.52 µM |
| COc1cc2c(cc1O)N=C[C@@H]1CCCN1C2=O | – | – | – | 1 µM | – | IC50 [7]: 2.2 µM |
| COC(=O)C1(O)C(OC)=CC(=O)N1CCCC(=O)Nc1cc(C(=O)Nc2cc(C(=O)Nc3cc(C(=O)NCCCN(C)C)n(C)c3)n(C)c2)n(C)c1 (centres undefined) | – | > 200 µM | – | – | – | – |
| Cc1n[nH]c2c1C13CC1CN(C(=O)OC(C)(C)C)C3=CC2=O (centres undefined) | 1.74 µM | 0.52 µM | 1.26 µM | – | 1.4 µM | IC50 [1]: 0.68 µM |
| C=C1CC(COc2cc(C(=O)Nc3cc(C(=O)Nc4cc(C(=O)Nc5cc(C(=O)NCCNC(=N)N)n(C)c5)n(C)c4)n(C)c3)n(C)n2)(c2ccccc2)OC1=O (centres undefined) | 10.1 µM | 5.1 µM | 10 µM | – | 20.5 µM | – |
| Cn1cc(NC(=O)c2cc(NC(=O)c3cc(NC(=O)c4cc(NC(=O)c5cc(NC=O)cn5C)cn4C)cn3C)cn2C)cc1C(=O)NCCC(=N)N | – | – | – | – | – | IC50 [8]: 24 µM |
| Cn1cc(NC(=O)c2cc(NC(=O)c3cc(NC(=O)CCCn4cc(F)c(=O)[nH]c4=O)cn3C)cn2C)cc1C(=O)NCCC(=N)N | – | – | – | 82 µM | – | – |
| C=C1CC(COc2cc(C(=O)Nc3cc(C(=O)Nc4cc(C(=O)Nc5cc(C(=O)NCCC(=N)N)n(C)c5)n(C)c4)n(C)c3)n(C)n2)(c2ccc(Cl)cc2)OC1=O (centres undefined) | 79.1 µM | 25.2 µM | 86.3 µM | – | 64.7 µM | – |
| Cn1cc(NC(=O)c2cc(NC(=O)c3cc(NC(=O)CCn4cc(F)c(=O)[nH]c4=O)cn3C)cn2C)cc1C(=O)NCCC(=N)N | – | – | – | 23 µM | – | – |
| Cn1cc(NC(=O)c2cc(NC(=O)c3cc(NC(=O)CCCCCCn4cc(F)c(=O)[nH]c4=O)cn3C)cn2C)cc1C(=O)NCCC(=N)N | – | – | – | 50 µM | – | – |
| COc1cc2c(cc1OCCC(=O)Nc1cc(C(=O)NCCC(=N)N)n(C)c1)N=C[C@@H]1CCCN1C2=O | – | – | – | > 100 µM | – | – |
| Cn1cc(NC(=O)c2cc(NC(=O)c3cc(NC(=O)Cn4cc(F)c(=O)[nH]c4=O)cn3C)cn2C)cc1C(=O)NCCC(=N)N | – | – | – | > 200 µM | – | – |
| C=C1CC(COc2cc(C(=O)Nc3cc(C(=O)Nc4cc(C(=O)Nc5cc(C(=O)NCCC(=N)N)n(C)c5)n(C)c4)n(C)c3)n(C)n2)(c2ccc(-c3ccccc3)cc2)OC1=O (centres undefined) | 65.3 µM | 33.2 µM | 95 µM | – | 21.8 µM | – |
| C=C1CC(COc2cc(C(=O)Nc3cc(C(=O)NCCC(=N)N)n(C)c3)n(C)n2)(c2ccccc2)OC1=O (centres undefined) | 15.8 µM | 12.5 µM | 18.9 µM | – | 36.3 µM | – |
| Cn1cc(NC(=O)c2cc(NC(=O)c3cc(NC(=O)[C@@H](N)CS)cn3C)cn2C)cc1C(=O)NCCC(=N)N | 35.8 µM | – | – | 24.2 µM | – | IC50 [9]: 92 µM; IC50 [10]: 98 µM; IC50 [11]: 36.7 µM; IC50 [12]: 45 µM |
| Cn1cc(NC(=O)c2cc(NC(=O)c3cc(NC(=O)C(N)CN)cn3C)cn2C)cc1C(=O)NCCC(=N)N (centres undefined) | 38.8 µM | – | – | 21.7 µM | – | IC50 [9]: 97 µM; IC50 [10]: 108 µM; IC50 [11]: 40.6 µM; IC50 [12]: 42.8 µM |
| Cn1cc(NC(=O)c2cc(NC(=O)c3cc(NC(=O)CCCCn4cc(F)c(=O)[nH]c4=O)cn3C)cn2C)cc1C(=O)NCCC(=N)N | – | – | – | 153 µM | – | – |
| Cn1cc(NC(=O)c2cc(NC(=O)c3cc(NC(=O)CCCCCn4cc(F)c(=O)[nH]c4=O)cn3C)cn2C)cc1C(=O)NCCC(=N)N | – | – | – | 50 µM | – | – |
| Cn1cc(NC(=O)c2cc(NC(=O)c3cc(NC=O)cn3C)cn2C)cc1C(=O)NCCC(=N)N [STALLIMYCIN] | 64.6 µM | 133 µM | 113 µM | – | 150 µM | – |

Continued, in another order:

| IC50 [3] | IC50 [4] | IC50 [5] | IC50 [6] | SMILES | IC50 [2] | other results |
| --- | --- | --- | --- | --- | --- | --- |
| 12.3 µM | 9.6 µM | 15.9 µM | – | C=C1CC(C)(COc2cc(C(=O)Nc3cc(C(=O)Nc4cc(C(=O)Nc5cc(C(=O)NCCNC(=N)N)n(C)c5)n(C)c4)n(C)c3)n(C)n2)OC1=O (centres undefined) | 42.5 µM | – |
| 71.1 µM | 26.7 µM | 35.6 µM | – | C=C1CC(C)(CCCCCCCOc2cc(C(=O)Nc3cc(C(=O)Nc4cc(C(=O)Nc5cc(C(=O)NCCC(=N)N)n(C)c5)n(C)c4)n(C)c3)n(C)n2)OC1=O (centres undefined) | 63.3 µM | – |
| 6.8 µM | 8.02 µM | 9.6 µM | – | C=C1CC(C)(COc2cc(C(=O)Nc3cc(C(=O)Nc4cc(C(=O)NCCC(=N)N)n(C)c4)n(C)c3)n(C)n2)OC1=O (centres undefined) | 27.6 µM | – |
| 254 µM | 195 µM | 255 µM | – | C=C1CC(C)(CCCOc2cc(C(=O)Nc3cc(C(=O)Nc4cc(C(=O)Nc5cc(C(=O)NCCC(=N)N)n(C)c5)n(C)c4)n(C)c3)n(C)n2)OC1=O (centres undefined) | 243 µM | – |
| 14.7 µM | 14.7 µM | 15.9 µM | – | C=C1CC(C)(COc2cc(C(=O)Nc3cc(C(=O)Nc4cc(C(=O)Nc5cc(C(=O)NCCC(=N)N)n(C)c5)n(C)c4)n(C)c3)n(C)n2)OC1=O (centres undefined) | 49 µM | – |
| 5.2 µM | 4.2 µM | 9.7 µM | – | C=C1CC(COc2cc(C(=O)Nc3cc(C(=O)Nc4cc(C(=O)Nc5cc(C(=O)NCCC(=N)N)n(C)c5)n(C)c4)n(C)c3)n(C)n2)(c2ccccc2)OC1=O (centres undefined) | 17.5 µM | – |
| 106 µM | 109 µM | 74.3 µM | – | C=C1CC(C)(CCCCCOc2cc(C(=O)Nc3cc(C(=O)Nc4cc(C(=O)Nc5cc(C(=O)NCCC(=N)N)n(C)c5)n(C)c4)n(C)c3)n(C)n2)OC1=O (centres undefined) | 92 µM | – |
| 22.3 µM | 24.3 µM | 26.3 µM | – | C=C1CC(C)(COc2cc(C(=O)Nc3cc(C(=O)NCCC(=N)N)n(C)c3)n(C)n2)OC1=O (centres undefined) | 32.4 µM | – |
| 4.6 µM | 4.1 µM | 5.7 µM | – | C=C1CC(COc2cc(C(=O)Nc3cc(C(=O)Nc4cc(C(=O)NCCC(=N)N)n(C)c4)n(C)c3)n(C)n2)(c2ccccc2)OC1=O (centres undefined) | 18.5 µM | – |
